Source: patent US10711002B2, “Purine compounds and method for the treatment of cancer” (THE ROYAL INSTITUTION FOR THE ADVANCEMENT OF …, priority 2016, dated 2020)

Experiments:
cell cycle = test: Cell cycle analysis (FACS, propidium iodide staining); type: cell-based
Method: Cell cycles were synchronized prior to treatment through overnight serum deprivation. After treatment, cells were fixed and permeabilized using BD Cytofix/Cytoperm reagent (BD Bioscience), washed with PBS, and treated with 100 μg/ml Bovine Pancreas RNase A (US Biological). Cells were then stained with 25 μg/ml propidium iodide (Sigma) for 15 minutes and then immediately analyzed by flow cytometry using BD FACScalibur. The data was analyzed using FCS Express software.
It was observed during Compound 1 treatment that the targeting effect against stem-like cells is visibly associated with morphological changes resembling cell polyploidization, the accumulation of multiple DNA copies in a cell. This biological phenomenon sometimes occur as part of cell differentiation and is often associated with disruption of normal cell cycle. The identification of Aurora kinases (described below) as targets of Compound 1 supports the possible impact on cell division. Therefore the effect of Compound 1 on cell cycle using FACS analysis to measure propidium iodide staining was investigated.

PMC42-LA cells = test: Organoid differentiation on matrigel; type: cell-based
Method: (§1) Cancer cell lines: MDA-MB-231, BT-20, Panc-1, OVCAR-3, 4T1 and RENCA were obtained from ATCC. Epithelial breast adenocarcinoma cell line PMC42-LA, were kindly provided by Dr. Ackland. Mia-Paca cells were kindly provided by Dr. George Zogopoulos. All cancer cell lines were cultured in RPMI1640× with 10% fetal bovine serum with 1% penicillin/streptomycin, and maintained at 37° C. in 5% atmosphere of CO2. In the case of growth factor stimulation, cells were serum starved for no longer than 12H, and then stimulated with 20 ng/ml EGF for 40 minutes.
In order to confirm that the reduction of CSC markers by Compound 1 correlates with loss of stem-cell properties, the effect of Compound 1 was investigated on the differentiation capability of a well-established PMC42-LA breast cell line. PMC42-LA cells treated with the appropriate concentrations of Compound 1 were also plated on Compound 1 containing matrigel and allowed to form organoids. Since the defining characteristic of stem cells is pluripotency—the capacity of a cell to differentiate into varying progenies, then Compound 1 may inhibit the differentiation process in those PMC42-LA cells. In the absence of drug treatment, PMC42-LA cells undergo differentiation into secretory organoids when cultured on matrigel.

MDA-MB-231 cells = test: Tumorsphere formation; type: cell-based; details: MDA-MB-231, 1 μM for 72H, reseeded in suspension
Method: as §1
(§2) After treatment with 1 μM Compound 1 for 72H, MDA-MB-231 and BT-20 cells were digested with 0.25% trypsin and reseeded at 2.5×10^4 cells/ml in 60 mm Ultralow Adherence plates (Corning) in DMEM/F12 supplemented with 5 ug/ml human insulin, 20 ng/ml human epidermal growth factor, 0.5 ug/ml hydrocortisone and 2% B27 (Invitrogen). Tumorspheres were then visualized (FIG. 1A) and then quantified (FIG. 1B). An important feature of cancer stem-like cells is their enhanced tumorsphere forming potential when grown in suspension. The tumorsphere forming capacity of Compound 1-treated MDA-MB-231 and BT-20 were analyzed in FIG. 1A. Consistent with previous characterization of these cells, in the absence of Compound 1, both MDA-MB-231 and BT-20 are capable of propagating as small individual tumorspheres that survive passaging.

BT-20 cells = test: Tumorsphere formation; type: cell-based; details: BT-20, 1 μM for 72H, reseeded in suspension
Method: as §1, §2

[1] = test system: 4T1/M (triple-negative breast cancer); test: In vivo distant metastasis and primary tumor growth, orthotopic transplant; details: 4T1/M in Balb/c mice, PO
Description: (§3) In vivo studies were approved by McGill Animal Care Committee. Cells growing in exponential phase of growth (1×10^6 cells/mouse) were transplanted into the mammary fat pad of female SCID (MDA231/M) or Balb/c (4T1) mice. Mia-PaCa cells and RENCA cells were implanted subcutaneously in SCID or Balb/c mice respectively. When primary tumors became palpable mice were randomized and blindly assigned treatment groups. Treatment was given PO for 4 cycles (3 times a week: day 1, day 3, day 5) (n=8-10 mice per condition). Control mice received the vehicle alone (1% DMSO in physiologic solution). […] Tumor size was measured using a caliper. At the study termination (60-90 days) primary tumors were excised and weighted. The lungs were fixed in 10% Bouin's fixative and lung surface metastases were counted using a stereomicroscope.

[2] = test system: MDA-231/M (human triple-negative breast cancer); test: as above; details: MDA-231/M in SCID mice, PO
Description: as §3

OVCAR-3 cells = test: Clonogenic assay; type: cell-based; details: OVCAR-3, 6 days of incubation
Method: as §1
(§4) Clonogenic assays were also performed using standard techniques as previously described. Briefly, cells were harvested from exponential-phase cultures, counted and plated at densities of 200 cells per well of a 12-well plate. Twenty-four hours after plating, the compounds were delivered once at the mentioned concentration. Negative control was carried out by treating the cells with DMSO. After 6 days of incubation in the presence of the compounds, the cells were stained with 0.5% crystal violet in absolute ethanol, and colonies were counted using the machine GelCount™ Tumor Colony Counter from Oxford Optronix Ltd. Each experiment was done in triplicates.

BT20 cells = test: Clonogenic assay; type: cell-based; details: BT20, 6 days of incubation
Method: as §1, §4

Panc-1 cells = test: Clonogenic assay; type: cell-based; details: Panc-1, 6 days of incubation
Method: as §1, §4

[3] = test system: breast cancer metastasis to the lung; test: In vivo invasive breast cancer models, metastasis to the lung; details: 30 mg/kg and below given bi-weekly for 3 weeks
Description: These kinases are directly involved in pathways controlling cell differentiation programs, metastasis signaling, as well as EMT and CSC programming and their overexpression was reported to predict decreased metastasis-free survival.
as §3, with “Treatment was given PO for 4 cycles (3 times a week: day 1, day 3, day 5) (n=8-10 mice per condition).” left out

[4] = test system: RENCA (renal adenocarcinoma); test: In vivo primary tumor growth, subcutaneous implant; design: species or system Balb/c mice
Description: as §3

[5] = test system: Mia-PaCa (human pancreatic carcinoma); test: In vivo primary tumor growth, subcutaneous implant; design: species or system SCID mice
Description: as §3

SMILES | accumulation of polyploidic cells (cell cycle) | differentiation and expansion of colonies into larger organoid structures (PMC42-LA cells) | number of overall colonies (PMC42-LA cells) | viable tumorspheres (MDA-MB-231 cells) | viable tumorspheres (BT-20 cells) | Primary tumor weight ([1]; at study termination) [g] | Inhibition of distant metastasis (% control) ([1]; lung surface metastases) | Primary tumor weight ([2]; at study termination) [g] | Inhibition of distant metastasis (% control) ([2]; lung surface metastases) | colony forming ability (OVCAR-3 cells) | colony forming ability (BT20 cells) | colony forming ability (Panc-1 cells) | inhibition of breast cancer metastasis to the lung [3] | Primary tumor weight (% inhibition vs. control) ([4]; RENCA subcutaneous in Balb/c mice, PO) | renal adenocarcinoma cell (RENCA) growth in vivo ([4]; mouse, in vivo) | Primary tumor weight ([5]; Mia-PaCa subcutaneous in SCID mice, PO, at study termination) [g] | pancreatic cancer cell (Mia-PaCa) growth in vivo ([5]; mouse, in vivo)
O=c1c2ccccc2[se]n1-c1nc(NC2CCCCC2)c2nc[nH]c2n1 [Compound 1] | induces a dose-dependent accumulation of polyploidic cells | visibly prevented the differentiation and expansion of these colonies into larger organoid structures | did not reduce the number of overall colonies | dramatic reduction in viable tumorspheres | dramatic reduction in viable tumorspheres | – | – | – | – | – | – | – | – | – | – | – | –
O=c1c2ccccc2[se]n1-c1nc(N[C@H]2CC[Se]C2)c2nc[nH]c2n1 [Compound 4] | – | – | – | – | – | 0.5 ± 0.10 | 75-82% | 0.2 ± 0.08 | 45-61% | Significant reduction | Significant reduction | Significant reduction | more than 50% | (34-55%) | able to inhibit | 0.6 ± 0.14 | able to inhibit
